Test results taken from ChEMBL document CHEMBL1201862, “PubChem BioAssay data set” (2004).
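Method: 48-hour compound exposure of cells in 96-well plates, five concentrations, linear interpolation of endpoints. Here, GI50 denotes the concentration required for 50% inhibition of growth.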 The source made the active and inactive calls. Cut-off read from the data, not from the text of the source: active = GI50 up to about 1.1 µM and inactive = higher.

Experiments:
Test in all cases: inhibition of tumour cell growth, NCI panel, 48 h
786-0 = test system: 786-0
KM12 = test system: KM12
HCC 2998 = test system: HCC 2998
OVCAR-8 = test system: OVCAR-8
HL-60 = test system: HL-60
UO-31 = test system: UO-31
SW-620 = test system: SW-620
HCT-116 = test system: HCT-116
NCI-H226 = test system: NCI-H226
M14 = test system: M14
SN12C = test system: SN12C
SF-539 = test system: SF-539
DU-145 = test system: DU-145
RXF 393 = test system: RXF 393
SR = test system: SR
K562 = test system: K562
CAKI-1 = test system: CAKI-1
CCRF-CEM = test system: CCRF-CEM
A498 = test system: A498
SF-268 = test system: SF-268

Measured: GI50

CC1(C)CC(=O)C(=CNc2nc(-c3ccccc3)cs2)C(=O)C1
inactive: 786-0 > 100 µM | KM12 32.1 µM | HCC 2998 31.2 µM | OVCAR-8 48.6 µM | HL-60 47.9 µM | UO-31 20.7 µM | SW-620 31.4 µM | HCT-116 > 100 µM | NCI-H226 29 µM | M14 41.1 µM | SN12C 39.2 µM | SF-539 26.4 µM | DU-145 57 µM

N#CC(C#N)=Cc1ccc(Oc2ccccc2)cc1
inactive: 786-0 18.2 µM | RXF 393 30.5 µM | KM12 39.3 µM | HCC 2998 97.5 µM | OVCAR-8 25.5 µM | SR 41.3 µM | HL-60 23 µM | K562 26.7 µM | CAKI-1 43.8 µM | CCRF-CEM 23.8 µM | UO-31 25.9 µM | SW-620 32.4 µM | HCT-116 20.6 µM | A498 > 100 µM | NCI-H226 > 43.9 µM | M14 22.2 µM | SF-268 27.9 µM | SN12C 14.1 µM | SF-539 19.9 µM

CC(NC(=O)C(N)CC(=O)O)NC(=O)N1CCOCC1 (stereo not drawn)
inactive: 786-0 > 100 µM | RXF 393 > 100 µM | KM12 > 100 µM | OVCAR-8 > 100 µM | K562 > 100 µM | CAKI-1 > 100 µM | CCRF-CEM > 100 µM | UO-31 > 100 µM | SW-620 > 100 µM | HCT-116 > 100 µM | A498 > 100 µM | NCI-H226 > 100 µM | M14 > 100 µM | SF-268 > 100 µM | SN12C > 100 µM | SF-539 > 100 µM | DU-145 > 100 µM

S=c1nc(N2CCCCC2)ss1
inactive: 786-0 20.9 µM | RXF 393 16.7 µM | KM12 17.2 µM | HCC 2998 16.2 µM | OVCAR-8 28.5 µM | SR 14.2 µM | HL-60 13.5 µM | K562 18.4 µM | CAKI-1 27.7 µM | CCRF-CEM 11.7 µM | UO-31 17.7 µM | SW-620 24.8 µM | HCT-116 17.7 µM | A498 20.2 µM | NCI-H226 43.9 µM | M14 20.2 µM | SF-268 21.1 µM | SN12C 17 µM | SF-539 18.9 µM

O=C1CCCC[C@H]1[C@H]1CCC[C@@H]([C@H]2CCCCC2=O)C1=O
inactive: 786-0 > 100 µM | RXF 393 > 100 µM | KM12 > 100 µM | HCC 2998 > 100 µM | SR > 100 µM | HL-60 > 100 µM | K562 > 100 µM | CAKI-1 > 100 µM | CCRF-CEM > 100 µM | UO-31 > 100 µM | SW-620 > 100 µM | HCT-116 > 100 µM | A498 > 100 µM | NCI-H226 > 100 µM | M14 > 100 µM | SF-268 > 100 µM | SN12C > 100 µM | SF-539 > 100 µM

C/C(=N\n1c(Cc2ccccc2)n[nH]c1=O)c1ccccc1
inactive: 786-0 > 100 µM | RXF 393 > 100 µM | KM12 > 100 µM | OVCAR-8 > 100 µM | HL-60 > 100 µM | K562 > 100 µM | CAKI-1 > 100 µM | CCRF-CEM > 100 µM | UO-31 > 100 µM | SW-620 > 100 µM | HCT-116 > 100 µM | A498 > 100 µM | NCI-H226 > 100 µM | M14 > 100 µM | SF-268 > 100 µM | SN12C > 100 µM | SF-539 > 100 µM | DU-145 > 100 µM

O=[N+]([O-])c1ccc(N/N=C2/CC3=C2CCCCCCCCCC3)c([N+](=O)[O-])c1
inactive: 786-0 80.9 µM | RXF 393 > 100 µM | KM12 > 100 µM | HCC 2998 > 100 µM | OVCAR-8 > 100 µM | K562 > 100 µM | CAKI-1 > 100 µM | CCRF-CEM > 100 µM | UO-31 > 100 µM | SW-620 > 100 µM | HCT-116 > 100 µM | A498 88.9 µM | NCI-H226 > 100 µM | M14 > 100 µM | SF-268 > 100 µM | SN12C > 100 µM | DU-145 > 100 µM

C/C(=N\NC(N)=S)C(CN(CC(C)C)CC(C)C)C(=O)Nc1ccc(C)cc1C (stereo not drawn)
inactive: 786-0 > 100 µM | RXF 393 > 100 µM | KM12 > 100 µM | HCC 2998 > 100 µM | OVCAR-8 > 100 µM | SR > 100 µM | HL-60 > 100 µM | K562 > 100 µM | CAKI-1 > 100 µM | CCRF-CEM > 100 µM | UO-31 > 100 µM | SW-620 > 100 µM | HCT-116 > 100 µM | A498 > 100 µM | NCI-H226 > 100 µM | M14 > 100 µM | SF-268 > 100 µM | SN12C > 100 µM | SF-539 > 100 µM

NC(=O)NC(=O)C1CCCCC1C(=O)O (stereo not drawn)
inactive: 786-0 > 100 µM | RXF 393 > 100 µM | KM12 > 100 µM | OVCAR-8 > 100 µM | HL-60 > 100 µM | K562 5.11 µM | CAKI-1 > 100 µM | CCRF-CEM > 100 µM | UO-31 > 100 µM | SW-620 > 100 µM | HCT-116 > 100 µM | A498 > 100 µM | NCI-H226 > 100 µM | M14 > 100 µM | SF-268 > 100 µM | SN12C > 100 µM | SF-539 > 100 µM | DU-145 > 100 µM

CCOc1ccc(N/C(=C(/C(Cl)=C(/Cl)Nc2ccccc2)[N+](=O)[O-])n2nnc3ccccc32)cc1
inactive: 786-0 22.2 µM | KM12 32.7 µM | HCC 2998 37.7 µM | K562 28.8 µM | CAKI-1 23.5 µM | UO-31 17.1 µM | HCT-116 22.8 µM | A498 > 100 µM | NCI-H226 40.1 µM | M14 16 µM | SF-268 18.6 µM | SN12C 20.8 µM | DU-145 45.9 µM

Cc1ccc(S(=O)(=O)CNC(=S)CCCC(=S)NCS(=O)(=O)c2ccc(C)cc2)cc1
inactive: 786-0 > 100 µM | RXF 393 79.4 µM | KM12 > 100 µM | HCC 2998 > 100 µM | OVCAR-8 > 100 µM | SR 32.7 µM | HL-60 16.1 µM | K562 53.6 µM | CAKI-1 > 100 µM | CCRF-CEM 21.3 µM | UO-31 35.2 µM | SW-620 53.5 µM | HCT-116 49 µM | A498 > 100 µM | NCI-H226 > 100 µM | M14 > 100 µM | SF-268 > 100 µM | SN12C > 100 µM | SF-539 > 100 µM

COc1ccc(N(c2ccc(C#N)cc2)c2ccc(C#N)cc2)cc1
inactive: 786-0 > 100 µM | KM12 8.43 µM | OVCAR-8 > 100 µM | HL-60 3.97 µM | CAKI-1 > 100 µM | CCRF-CEM 3.07 µM | UO-31 22.2 µM | SW-620 > 100 µM | HCT-116 93.5 µM | A498 65.3 µM | NCI-H226 > 100 µM | M14 > 100 µM | SF-268 > 100 µM | SN12C > 100 µM | SF-539 > 100 µM | DU-145 > 100 µM

CCCCCCCC(=O)OCC1OC(n2cc(F)c(=O)[nH]c2=O)C(N)C(O)C1O (stereo not drawn)
inactive: 786-0 > 100 µM | RXF 393 > 100 µM | KM12 > 100 µM | HCC 2998 > 100 µM | OVCAR-8 > 100 µM | SR > 100 µM | HL-60 > 100 µM | K562 > 100 µM | CAKI-1 > 100 µM | CCRF-CEM > 100 µM | UO-31 > 100 µM | SW-620 > 100 µM | HCT-116 > 100 µM | A498 > 100 µM | NCI-H226 > 100 µM | M14 > 100 µM | SF-268 > 100 µM | SN12C > 100 µM | SF-539 > 100 µM

COc1cccc2c1C(=O)c1c(O)c3c(c(O)c1C2=O)CC(O)(C(C)=O)CC3OC1CC([N+](C)(C)C)C(O)C(C)O1 (stereo not drawn)
inactive: 786-0 > 100 µM | RXF 393 > 100 µM | KM12 > 100 µM | HCC 2998 > 100 µM | OVCAR-8 54.3 µM | SR 5.24 µM | HL-60 24 µM | K562 23.1 µM | CAKI-1 > 100 µM | CCRF-CEM 48.1 µM | UO-31 > 100 µM | SW-620 56.1 µM | HCT-116 66.8 µM | A498 > 100 µM | NCI-H226 80.7 µM | M14 > 100 µM | SF-268 > 100 µM | SN12C 50.7 µM | SF-539 47.2 µM

Cc1c2cc[n+](C)cc2c(C)c2c1[nH]c1ccc(OC(C)(C)C)cc12
inactive: 786-0 > 100 µM | RXF 393 > 100 µM | KM12 > 100 µM | HCC 2998 > 100 µM | OVCAR-8 > 100 µM | SR > 100 µM | HL-60 > 100 µM | K562 > 100 µM | CAKI-1 > 100 µM | CCRF-CEM > 100 µM | UO-31 > 100 µM | SW-620 > 100 µM | HCT-116 > 100 µM | A498 > 100 µM | NCI-H226 > 100 µM | M14 > 100 µM | SF-268 > 100 µM | SN12C > 100 µM | SF-539 > 100 µM
